Assay results reported in patent US20100029657A1, “Bridged, Bicyclic Heterocyclic or Spiro Bicyclic Heterocyclic Derivatives of Pyrazolo[1, 5-A]Pyrimidines, Methods for Preparation and Uses Thereof” (Wyeth, priority 2008, published 2010).
Counter-ions that a name gives are not always drawn.

target: T1, Flag/GST-tagged recombinant human B-Raf (Homo sapiens, UniProt P15056); experiment: B-Raf kinase assay (phosphorylation of GST-MEK1, phospho-MEK1 antibody/Europium detection); assay type: biochemical; conditions: B-Raf IC50 Data for compounds of Formula A; read-out: Mean IC50
T1 construct: Flag; GST; made in house; host or cells: Sf9 insect cells (B-Raf); E. coli (MEK1-GST)
T1 sequence (P15056 whole entry): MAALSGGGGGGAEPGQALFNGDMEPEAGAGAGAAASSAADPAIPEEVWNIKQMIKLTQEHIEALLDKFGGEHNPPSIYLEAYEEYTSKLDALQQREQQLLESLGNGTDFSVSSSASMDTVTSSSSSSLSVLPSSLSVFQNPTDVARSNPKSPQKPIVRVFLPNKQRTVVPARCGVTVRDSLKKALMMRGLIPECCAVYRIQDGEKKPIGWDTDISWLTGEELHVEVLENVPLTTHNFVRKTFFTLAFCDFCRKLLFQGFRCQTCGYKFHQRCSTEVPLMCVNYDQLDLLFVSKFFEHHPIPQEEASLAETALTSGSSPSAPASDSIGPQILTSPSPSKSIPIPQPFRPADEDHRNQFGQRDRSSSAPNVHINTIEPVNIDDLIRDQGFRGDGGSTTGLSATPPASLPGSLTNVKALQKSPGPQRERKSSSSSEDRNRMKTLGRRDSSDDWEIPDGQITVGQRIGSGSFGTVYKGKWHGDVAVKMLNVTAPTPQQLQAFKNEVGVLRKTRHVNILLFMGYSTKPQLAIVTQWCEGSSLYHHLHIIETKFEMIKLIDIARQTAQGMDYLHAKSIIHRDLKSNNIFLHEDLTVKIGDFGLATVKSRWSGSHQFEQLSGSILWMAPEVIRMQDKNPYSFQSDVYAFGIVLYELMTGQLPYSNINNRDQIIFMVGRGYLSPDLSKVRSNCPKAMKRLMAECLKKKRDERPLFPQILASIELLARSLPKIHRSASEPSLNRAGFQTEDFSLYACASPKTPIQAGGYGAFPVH
Experimental: B-Raf1 Kinase Assay Procedure: B-Raf-1 is used to phosphorylate GST-MEK1.
• 1. Assay Dilution Buffer (ADB): 20 mM MOPS, pH 7.2, 25 mM β-glycerol phosphate, 5 mM EGTA, 1 mM sodium orthovanadate, 1 mM dithiothreitol, 0.01% Triton X-100. • 2. Magnesium/ATP Cocktail: ADB solution (minus Triton X-100) plus 200 μM cold ATP and 40 mM magnesium chloride. • 4. Active Kinase: Active B-Raf: Used at 0.2 nM per assay point. • 5. […] TBST—Tris (50 mM, pH 7.5), NaCl (150 mM), Tween-20 (0.05%) • 7. Anti-GST Ab (GE) • 8. Anti pMEK Ab (Upstate) • 9. Anti-rabbit Ab/Europium conjugate (Wallac).
B-Raf Assay Procedure: • 1. Added 25 μL of ADB containing B-Raf and Mek per assay (i.e. per well of a 96 well plate) • 2. Added 25 μL of 0.2 mM ATP and 40 mM magnesium chloride in Magnesuium/ATP Cocktail. • 3. Incubated for 45 minutes at RT with occasional shaking. • 4. Transferred this mixture to an anti-GST Ab coated 96 well plate (Nunc Immunosorb plates coated o/n with a-GST. Plate freshly washed 3×with TBS-T before use. • 5. Incubated o/n at […] in cold room. • 6. Washed 3× with TBST, ed Anti-Phospho MEK1 (1:1000, dilution depended upon lot) • 7. Incubated for 60 minutes at RT in a shaking incubator • 8. Washed 3× with TBST, add Anti-rabbit Ab/Europium conjugate (Wallac) (1:500, dilution depended upon lot) • 9. Incubated for 60 minutes at RT on a platform shaker. • 10. Washed plate 3× with TBS-T • 11. Added 100 μL of Wallac Delfia Enhancement Solution and agitated for 10 minutes. • 12. Read plates in Wallac Victor model Plate Reader. • 13.
The % inhibition was determined for each compound concentration.

Row | IC50 [nM] | SMILES
1 | < 0.3 | CN1C[C@@H]2C[C@H]1CN2c1ccc(-c2ccnc3c(-c4ccc(F)c5[nH]ncc45)c(-c4ccncc4)nn23)c(F)c1 [Example 107, 3-(7-fluoro-1H-indazol-4-yl)-7-{2-fluoro-4-[(1S,4S)-5-methyl-2,5-diazabicyclo[2.2.1]hept-2-yl]phenyl}-2-pyridin-4-ylpyrazolo[1,5-a]pyrimidine]
2 | < 0.3 | Oc1cccc(-c2c(-c3ccncc3)nn3c(-c4ccc(N5C[C@@H]6C[C@H]5CN6)cc4Cl)ccnc23)c1 [Example 59, 3-(7-(4-((1S,4S)-2,5-Diazabicyclo[2.2.1]heptan-2-yl)-2-chlorophenyl)-2-(pyridin-4-yl)pyrazolo[1,5-a]pyrimidin-3-yl)phenol]
3 | 8.6 | Fc1ccc(-c2c(-c3ccncc3)nn3c2nccc3[C@H]2CC[C@@H](N3CC4CCC(C3)O4)CC2)c2cn[nH]c12 (relative stereo) [Example 179, 3-(7-fluoro-1H-indazol-4-yl)-7-[cis-4-(8-oxa-3-azabicyclo[3.2.1]oct-3-yl)cyclohexyl]-2-pyridin-4-ylpyrazolo[1,5-a]pyrimidine]
4 | 8.2 | COc1cccc(-c2c(-c3ccncc3)nn3c(-c4ccc(N5C[C@@H]6C[C@H]5CN6C)cc4)ccnc23)c1 [Example 36, 3-(3-Methoxyphenyl)-7-(4-((1S,4S)-5-methyl-2,5-diazabicyclo[2.2.1]heptan-2-yl)phenyl)-2-(pyridin-4-yl)pyrazolo[1,5-a]pyrimidine]
5 | < 0.3 | Fc1cc(N2C[C@@H]3C[C@H]2CN3)ccc1-c1ccnc2c(-c3cccc4[nH]ncc34)c(-c3ccncc3)nn12 [Example 52, 7-(4-((1S,4S)-2,5-Diazabicyclo[2.2.1]heptan-2-yl)-2-fluorophenyl)-3-(1H-indazol-4-yl)-2-(pyridin-4-yl)pyrazolo[1,5-a]pyrimidine]
6 | 566 | CCN1C2CCC1CC(c1ccnc3c(-c4ccc(NC=O)c(O)c4)c(-c4ccncc4)nn13)C2 (stereo not drawn) [Example 72a, N-(4-(7-(8-Ethyl-8-azabicyclo[3.2.1]octan-3-yl)-2-(pyridin-4-yl)pyrazolo[1,5-a]pyrimidin-3-yl)-2-hydroxyphenyl)formamide]
7 | < 0.3 | CN1C[C@@H]2C[C@H]1CN2c1ccc(-c2ccnc3c(-c4cccc5[nH]ncc45)c(-c4ccncc4)nn23)c(Cl)c1 [Example 62, 7-(2-Chloro-4-((1S,4S)-5-methyl-2,5-diazabicyclo[2.2.1]heptan-2-yl)phenyl)-3-(1H-indazol-4-yl)-2-(pyridin-4-yl)pyrazolo[1,5-a]pyrimidine]
8 | 1.2 | CN1C2CCC1CN(c1ccc(-c3ccnc4c(-c5cccc6[nH]ncc56)c(-c5ccncc5)nn34)cn1)C2 [Example 140, 3-(1H-indazol-4-yl)-7-[6-(8-methyl-3,8-diazabicyclo[3.2.1]oct-3-yl)pyridin-3-yl]-2-pyridin-4-ylpyrazolo[1,5-a]pyrimidine]
9 | 5.7 | c1cc(-c2c(-c3ccncc3)nn3c(-c4ccc(CN5C[C@@H]6C[C@H]5CO6)s4)ccnc23)c2cn[nH]c2c1 [Example 197, 3-(1H-indazol-4-yl)-7-{5-[(1S,4S)-2-oxa-5-azabicyclo[2.2.1]hept-5-ylmethyl]thiophen-2-yl}-2-pyridin-4-ylpyrazolo[1,5-a]pyrimidine]
10 | 0.7 | Cc1ccc(-c2c(-c3ccncc3)nn3c(-c4ccc(N5C[C@@H]6C[C@H]5CN6C)nc4)ccnc23)c2cn[nH]c12 [Example 40, 3-(7-Methyl-1H-indazol-4-yl)-7-(6-((1S,4S)-5-methyl-2,5-diazabicyclo[2.2.1]heptan-2-yl)pyridin-3-yl)-2-(pyridin-4-yl)pyrazolo[1,5-a]pyrimidine]
11 | 0.6 | Cc1cc(N2C[C@@H]3C[C@H]2CN3)ccc1-c1ccnc2c(-c3cccc4[nH]ncc34)c(-c3ccncc3)nn12 [Example 44, 7-(4-((1S,4S)-2,5-Diazabicyclo[2.2.1]heptan-2-yl)-2-methylphenyl)-3-(1H-indazol-4-yl)-2-(pyridin-4-yl)pyrazolo[1,5-a]pyrimidine]
12 | 0.5 | CC(=O)N1C[C@@H]2C[C@H]1CN2c1ccc(-c2ccnc3c(-c4ccc(F)c(O)c4)c(-c4ccncc4)nn23)cc1 [Example 39, 1-((1S,4S)-5-(4-(3-(4-Fluoro-3-hydroxyphenyl)-2-(pyridin-4-yl)pyrazolo[1,5-a]pyrimidin-7-yl)phenyl)-2,5-diazabicyclo[2.2.1]heptan-2-yl)ethanone]

The remaining lines, values behind:

Row | SMILES | IC50 [nM]
13 | CC(C)N1C2CCC1CC(c1ccnc3c(-c4cccc5[nH]ncc45)c(-c4ccncc4)nn13)C2 (stereo not drawn) [Example 113, 3-(1H-indazol-4-yl)-7-(8-isopropyl-8-azabicyclo[3.2.1]oct-3-yl)-2-pyridin-4-ylpyrazolo[1,5-a]pyrimidine] | 67
14 | CN1C[C@@H]2C[C@H]1CN2c1cc(F)cc(F)c1-c1ccnc2c(-c3cccc4[nH]ncc34)c(-c3ccncc3)nn12 [Example 147, 7-{2,4-difluoro-6-[(1S,4S)-5-methyl-2,5-diazabicyclo[2.2.1]hept-2-yl]phenyl}-3-(1H-indazol-4-yl)-2-pyridin-4-ylpyrazolo[1,5-a]pyrimidine] | > 100
15 | CN1C[C@@H]2C[C@H]1CN2c1ccc(-c2ccnc3c(-c4ccc(F)c(O)c4)c(-c4ccncc4)nn23)cc1 [Example 54, 2-fluoro-5-(7-(4-((1S,4S)-5-methyl-2,5-diazabicyclo[2.2.1]heptan-2-yl)phenyl)-2-(pyridin-4-yl)pyrazolo[1,5-a]pyrimidin-3-yl)phenol] | 150
16 | CCN1C2CCC1CC(c1ccnc3c(-c4ccc(NC=O)c(OC)c4)c(-c4ccncc4)nn13)C2 (stereo not drawn) [Example 72b, N-(4-(7-(8-ethyl-8-azabicyclo[3.2.1]octan-3-yl)-2-(pyridin-4-yl)pyrazolo[1,5-a]pyrimidin-3-yl)-2-methoxyphenyl)formamide] | 417
17 | c1cc(-c2c(-c3ccncc3)nn3c(-c4ccc(N5C[C@@H]6C[C@H]5CN6)cc4)ccnc23)c2cn[nH]c2c1 [Example 51, 7-(4-((1S,4S)-2,5-Diazabicyclo[2.2.1]heptan-2-yl)phenyl)-3-(1H-indazol-4-yl)-(pyridin-4-yl)pyrazolo[1,5-a]pyrimidine] | 0.8
18 | CN1C[C@@H]2C[C@H]1CN2c1ccc(-c2ccnc3c(-c4cccc5[nH]ncc45)c(-c4ccncc4)nn23)cc1F [Example 188, 7-{3-fluoro-4-[(1S,4S)-5-methyl-2,5-diazabicyclo[2.2.1]hept-2-yl]phenyl}-3-(1H-indazol-4-yl)-2-pyridin-4-ylpyrazolo[1,5-a]pyrimidine] | 1.9
19 | CCN1C2CCC1CC(c1ccnc3c(-c4ccc(Cl)c(OC)c4)c(-c4ccncc4)nn13)C2 (stereo not drawn) [Example 17, 3-(4-Chloro-3-methoxyphenyl)-7-(8-ethyl-8-azabicyclo[3.2.1]oct-3-yl)-2-pyridin-4-ylpyrazolo[1,5-a]pyrimidine] | 44
20 | CCOC(=O)N1C2CCC1CC(c1ccnc3c(-c4ccc(Cl)c(OC)c4)c(-c4ccncc4)nn13)C2 (stereo not drawn) [Example 10, Ethyl 3-(3-(4-chloro-3-methoxyphenyl)-2-(pyridin-4-yl)pyrazolo[1,5-a]pyrimidin-7-yl)-8-azabicyclo[3.2.1]octane-8-carboxylate] | 54
21 | CCOC(=O)N1C2CCC1CC(c1ccnc3c(-c4ccc(F)c5[nH]ncc45)c(-c4ccncc4)nn13)C2 (stereo not drawn) [Example 81, Ethyl 3-[3-(7-fluoro-1H-indazol-4-yl)-2-pyridin-4-ylpyrazolo[1,5-a]pyrimidin-7-yl]-8-azabicyclo[3.2.1]octane-8-carboxylate, trifluoroacetate salt] | 0.4
